From patent publication US20240116946A1 (Gilead Sciences, Inc., priority 2022, published 2024)
pEC50, pIC50: −log10 of the molar value. Read-outs that look alike come from different tables or passages of the source.

Columns and labels:
[1] = molecular target: recombinant SARS-CoV-2 Main protease (Mpro) (Severe acute respiratory syndrome coronavirus 2 (2019-nCoV) (SARS-CoV-2), UniProt P0DTD1); assay: Cov Mpro Biochemical IC50 Assay; conditions: recombinant SARS-CoV-2 Mpro, fluorogenic peptide substrate; read-out: MPro IC50
SARS-CoV-2-NLuc = assay: microbe, parasite or virus in culture; assay type: cell-based, SARS Coronavirus 2
[2] = Severe acute respiratory syndrome coronavirus, 48 h, read-out: MPro EC50

With `CN1C(=O)CCc2cc(-c3cccc(Cl)c3-c3ccc4c(=O)n(-c5cncc6ccccc56)c(=O)[nH]c4c3)ccc21` [Example 307] the pIC50 [1] was 7.77 and the pEC50 (SARS-CoV-2-NLuc; [2]) was 7.98.

For `COc1ccc(C#N)c(-c2ccc3c(=O)n(-c4cncc5ccccc45)c(=O)[nH]c3c2)c1` [Example 308, 2-[3-(4-isoquinolyl)-2,4-dioxo-1H-quinazolin-7-yl]-4-methoxy-benzonitrile], the pIC50 [1] was 7.79 and the pEC50 (SARS-CoV-2-NLuc; [2]) was 7.51.

Work on `COc1ccc(Cl)c(-c2cc3[nH]c(=O)n(-c4cncc5ccccc45)c(=O)c3cc2OC)c1` [Example 309] yielded a pIC50 [1] of 7.24 and a pEC50 (SARS-CoV-2-NLuc; [2]) of 7.57.

`Cn1cc(-c2cccc(Cl)c2-c2ccc3c(=O)n(-c4cncc5ccccc45)c(=O)[nH]c3c2)nn1` [Example 310] was tested, and the pIC50 [1] was 7.26 and the pEC50 (SARS-CoV-2-NLuc; [2]) was 6.85.

With `Cn1ncc(-c2cccc(Cl)c2-c2ccc3c(=O)n(-c4cncc5ccccc45)c(=O)[nH]c3c2)c1C(F)F` [Example 311] the pIC50 [1] was 7.34 and the pEC50 (SARS-CoV-2-NLuc; [2]) was 7.60.

Compound `COc1ccc(C#N)c(-c2cc3[nH]c(=O)n(-c4cncc5ccccc45)c(=O)c3cc2OC)c1` [Example 312] has a pIC50 [1] of 7.85 and a pEC50 (SARS-CoV-2-NLuc; [2]) of 7.69.

`Cc1nnn(C)c1-c1cccc(Cl)c1-c1ccc2c(=O)n(-c3cncc4ccccc34)c(=O)[nH]c2c1` [Example 313] was tested, and the pIC50 [1] was 7.39 and the pEC50 (SARS-CoV-2-NLuc; [2]) was 6.84.

Work on `CN1CCOc2cc(-c3cccc(Cl)c3-c3ccc4c(=O)n(-c5cncc6ccccc56)c(=O)[nH]c4c3)ccc21` [Example 314] yielded a pIC50 [1] of 6.34 and a pEC50 (SARS-CoV-2-NLuc; [2]) of 7.14.

Work on `CN1C(=O)CC(C)(C)c2cc(-c3cccc(Cl)c3-c3ccc4c(=O)n(-c5cncc6ccccc56)c(=O)[nH]c4c3)ccc21` [Example 315] yielded a pIC50 [1] of 7.38 and a pEC50 (SARS-CoV-2-NLuc; [2]) of 7.40.

With `COc1cc(-c2ccc3c(=O)n(-c4cncc5ccccc45)c(=O)[nH]c3c2)c(Cl)cc1Cl` [Example 316] the pIC50 [1] was 5.97 and the pEC50 (SARS-CoV-2-NLuc; [2]) was 6.49.

`Cc1cc(-c2cccc(Cl)c2-c2ccc3c(=O)n(-c4cncc5ccccc45)c(=O)[nH]c3c2)cc(C#N)n1` [Example 317] was tested, and the pIC50 [1] was 7.96 and the pEC50 (SARS-CoV-2-NLuc; [2]) was 8.30.

With `O=c1[nH]c2cc(-c3c(Cl)cccc3-c3ccnc(C4CC4)c3)ccc2c(=O)n1-c1cncc2ccccc12` [Example 318] the pIC50 [1] was 8.06 and the pEC50 (SARS-CoV-2-NLuc; [2]) was greater than 8.47.

In the case of `COc1cc(-c2ccc3c(=O)n(-c4cncc5ccccc45)c(=O)[nH]c3c2)c(C#N)cc1F` [Example 319], the pIC50 [1] was 7.97 and the pEC50 (SARS-CoV-2-NLuc; [2]) was 7.55.

Work on `Cc1ncccc1-c1cccc(Cl)c1-c1ccc2c(=O)n(-c3cncc4ccccc34)c(=O)[nH]c2c1` [Example 320] yielded a pIC50 [1] of 7.80 and a pEC50 (SARS-CoV-2-NLuc; [2]) of 7.85.

`Cc1nn(C2COC2)c(C)c1-c1cccc(Cl)c1-c1ccc2c(=O)n(-c3cncc4ccccc34)c(=O)[nH]c2c1` [Example 321] was tested, and the pIC50 [1] was 8.08 and the pEC50 (SARS-CoV-2-NLuc; [2]) was 7.60.

Compound `COc1ccc(Cl)c(-c2ccc3c(=O)n(-c4cncc5ccccc45)c(=O)[nH]c3c2)c1F` [Example 322] has a pIC50 [1] of 5.45 and a pEC50 (SARS-CoV-2-NLuc; [2]) of 5.88.

In the case of `N#Cc1cc(F)c(F)cc1-c1ccc2c(=O)n(-c3cncc4ccccc34)c(=O)[nH]c2c1` [Example 323], the pIC50 [1] was 6.95 and the pEC50 (SARS-CoV-2-NLuc; [2]) was 6.25.

For `COc1cc(-c2cc3[nH]c(=O)n(-c4cncc5ccccc45)c(=O)c3cc2OC)c(C#N)cc1F` [Example 324, 5-fluoro-2-[3-(4-isoquinolyl)-6-methoxy-2,4-dioxo-1H-quinazolin-7-yl]-4-methoxy-benzonitrile], the pIC50 [1] was 8.15 and the pEC50 (SARS-CoV-2-NLuc; Severe acute respiratory syndrome coronavirus, 48 h; read-out: MPro EC50) was 7.74.

`O=c1[nH]c2cc(-c3c(Cl)cccc3-c3cnn4c3OCCC4)ccc2c(=O)n1-c1cncc2ccccc12` [Example 325] gave a pIC50 [1] of 7.80 and a pEC50 (SARS-CoV-2-NLuc; [2]) of 7.56.

`N#Cc1ccc(OC(F)F)cc1-c1ccc2c(=O)n(-c3cncc4ccccc34)c(=O)[nH]c2c1` [Example 326] showed a pIC50 [1] of 7.37 and a pEC50 (SARS-CoV-2-NLuc; [2]) of 6.97.

For `O=c1[nH]c2cc(-c3c(Cl)cccc3-c3ccc4c(c3)CCS(=O)(=O)N4)ccc2c(=O)n1-c1cncc2ccccc12` [Example 327], the pIC50 [1] was 7.88 and the pEC50 (SARS-CoV-2-NLuc; [2]) was 7.02.

`N#Cc1cc(-c2cccc(Cl)c2-c2ccc3c(=O)n(-c4cncc5ccccc45)c(=O)[nH]c3c2)ccn1` [Example 328] showed a pIC50 [1] of 7.81 and a pEC50 (SARS-CoV-2-NLuc; [2]) of 7.34.

For `O=c1[nH]c2cc(-c3c(Cl)cccc3-c3ccncc3)ccc2c(=O)n1-c1cncc2ccccc12` [Example 329], the pIC50 [1] was 8.01 and the pEC50 (SARS-CoV-2-NLuc; [2]) was 7.65.

For `O=c1[nH]c2cc(-c3cc(OC(F)F)ccc3Cl)ccc2c(=O)n1-c1cncc2ccccc12` [Example 330], the pIC50 [1] was 6.49 and the pEC50 (SARS-CoV-2-NLuc; [2]) was 6.67.

Compound `Cc1cc(-c2cccc(Cl)c2-c2ccc3c(=O)n(-c4cncc5ccccc45)c(=O)[nH]c3c2)ccn1` [Example 331] has a pIC50 [1] of 7.98 and a pEC50 (SARS-CoV-2-NLuc; [2]) of 7.77.

`O=c1[nH]c2cc(-c3c(Cl)cccc3-c3ccncc3F)ccc2c(=O)n1-c1cncc2ccccc12` [Example 332] showed a pIC50 [1] of 7.82 and a pEC50 (SARS-CoV-2-NLuc; [2]) of 7.41.

`COc1cnc(C#N)c(-c2ccc3c(=O)n(-c4cncc5ccccc45)c(=O)[nH]c3c2)c1` [Example 333] gave a pIC50 [1] of 6.83 and a pEC50 (SARS-CoV-2-NLuc; [2]) of 6.12.

`O=c1[nH]c2cc(-c3c(Cl)cccc3-c3ccnc(C(F)(F)F)c3)ccc2c(=O)n1-c1cncc2ccccc12` [Example 334] showed a pIC50 [1] of 7.10 and a pEC50 (SARS-CoV-2-NLuc; [2]) of 7.09.

Compound `COc1cc(-c2ccc3c(=O)n(-c4cncc5ccccc45)c(=O)[nH]c3c2)c(C#N)cn1` [Example 335] has a pIC50 [1] of 6.54 and a pEC50 (SARS-CoV-2-NLuc; [2]) of 6.00.

`O=c1[nH]c2cc(-c3ccccc3Cl)sc2c(=O)n1-c1cncc2sccc12` [Example 336] gave a pIC50 [1] of 8.33 and a pEC50 (SARS-CoV-2-NLuc; [2]) of 8.15.

Compound `O=c1[nH]c2cc(-c3ccccc3Cl)sc2c(=O)n1-c1cncc2ccc(N3CCn4c(nnc4C(F)(F)F)C3)cc12` [Example 337] has a pIC50 [1] greater than 8.57 and a pEC50 (SARS-CoV-2-NLuc; [2]) of 6.77.

In the case of `Cc1ccc(Cl)c(-c2cc3[nH]c(=O)n(-c4cncc5ccccc45)c(=O)c3s2)c1` [Example 338], the pIC50 [1] was 7.86 and the pEC50 (SARS-CoV-2-NLuc; [2]) was 7.43.

`Cc1ccc(-c2cc3[nH]c(=O)n(-c4cncc5ccccc45)c(=O)c3s2)c(Cl)c1` [Example 339] was tested, and the pIC50 [1] was 7.83 and the pEC50 (SARS-CoV-2-NLuc; [2]) was 7.32.

`COc1cc(-c2cc3[nH]c(=O)n(-c4cncc5ccccc45)c(=O)c3s2)c(Cl)cc1F` [Example 340, 6-(2-chloro-4-fluoro-5-methoxy-phenyl)-3-(4-isoquinolyl)-1H-thieno[3,2-d]pyrimidine-2,4-dione] was tested, and the pIC50 [1] was 8.28 and the pEC50 (SARS-CoV-2-NLuc; [2]) was 8.27.

With `COc1cc(-c2cc3[nH]c(=O)n(-c4cncc5ccccc45)c(=O)c3s2)c(Cl)cc1C` [Example 341] the pIC50 [1] was 8.26 and the pEC50 (SARS-CoV-2-NLuc; [2]) was 8.34.

`COc1cc(-c2cc3[nH]c(=O)n(-c4cncc5ccccc45)c(=O)c3s2)c(Cl)cc1Cl` [Example 342] gave a pIC50 [1] of 8.35 and a pEC50 (SARS-CoV-2-NLuc; [2]) of 8.17.

`COc1cc(Cl)c(-c2cc3[nH]c(=O)n(-c4cncc5ccccc45)c(=O)c3s2)cc1OC` [Example 343] gave a pIC50 [1] of 8.40 and a pEC50 (SARS-CoV-2-NLuc; [2]) of 8.11.

For `O=c1[nH]c2cc(-c3cc(OC(F)(F)F)ccc3Cl)sc2c(=O)n1-c1cncc2ccccc12` [Example 344], the pIC50 [1] was 6.96 and the pEC50 (SARS-CoV-2-NLuc; [2]) was 6.43.

`CCOc1ccc(Cl)c(-c2cc3[nH]c(=O)n(-c4cncc5ccccc45)c(=O)c3s2)c1` [Example 345] gave a pIC50 [1] of 7.83 and a pEC50 (SARS-CoV-2-NLuc; [2]) of 7.21.

`CC(C)Oc1ccc(Cl)c(-c2cc3[nH]c(=O)n(-c4cncc5ccccc45)c(=O)c3s2)c1` [Example 346] gave a pIC50 [1] of 7.13 and a pEC50 (SARS-CoV-2-NLuc; [2]) of 6.62.

Work on `O=c1[nH]c2cc(-c3cc4c(cc3Cl)OCO4)sc2c(=O)n1-c1cncc2ccccc12` [Example 347] yielded a pIC50 [1] of 6.36 and a pEC50 (SARS-CoV-2-NLuc; [2]) of 6.19.

`O=c1[nH]c2cc(-c3cc4c(cc3Cl)OC(F)(F)O4)sc2c(=O)n1-c1cncc2ccccc12` [Example 348] was tested, and the pIC50 [1] was 5.32 and the pEC50 (SARS-CoV-2-NLuc; [2]) was 5.05.
